Paper PMC3923716 (PLoS Neglected Tropical Diseases, 2014)
Values joined by “and” are separate entries in the source; they are usually repeats but may differ in a detail not shown here. Equal entries are not always repeated. Marks after values point to notes of the source that are not given here.

How the values were obtained:
[1] = test system: adult female B. pahangi and Mf; assay: In vivo testing: adult female worms transplanted into the peritoneal cavity of BALB/c mice; set-up: species or system BALB/c mouse; settings: 50 mg/Kg i.p. at day 0, 3 and 7
Text: Adult worms were removed from the peritoneal cavity of infected jirds and rinsed in HBSS. 10 adult female worms were transplanted into the peritoneal cavity of each of ten male BALB/c mouse using standard methods, [28]. Adult worms were transferred into the peritoneal cavity of anaesthetized mice using a blunted glass hook. Not all mice received the full quota of 10 worms (see Table 1). […] This dose was selected on the basis of previous studies in a mouse xenograft model. […] The condition of any adult worms recovered was noted. Mf in the first 12 ml of peritoneal washings were pelleted by centrifugation and fixed in 2% formalin in water and stored at 4°C until counted. Mice were weighed at each time point to monitor any possible weight loss.

L3 stage of B. pahangi = assay: L3 viability in vitro; type: cell-based, Brugia pahangi; settings: 6 days exposure
Method: L3 stages were harvested from mosquitoes nine days post-infection. L3 were picked individually with a fine glass pipette, counted and washed three times in HBSS containing 1000 units/ml of penicillin and 1000 µg/ml streptomycin by sedimentation at room temperature. 20–30 L3 per well were plated out in duplicate in 24-well plates in 2.0 ml of WCM containing drug, or carrier alone (DMSO) and cultured at 37°C for up to 7 days. […] This experiment was repeated twice.

[2] = test system: B. pahangi Mf (microfilariae); assay: Mf viability in vitro; type: cell-based, Brugia pahangi; settings: Mf
Method: As adult Brugia worms are limited in numbers, initial experiments assessed the effect of each drug on Mf viability. Mf were purified from infected animals essentially as described previously. In brief, following lavage of the peritoneal cavity of an infected animal with Hanks Balanced Salt Solution (HBSS) pre-warmed to 37°C, Mf were collected by centrifugation and then purified from host cells by centrifugation through lymphoprep (Sigma). This procedure was repeated twice. Mf were collected from the pellet, washed twice in HBSS and once in worm culture medium (WCM) which comprised RPMI 1640, (Invitrogen Cat No: 52400), containing 5% heat inactivated fetal calf serum, 1% glucose, 100 units/ml penicillin and 100 µg/ml streptomycin (all Invitrogen). Mf were then dispensed into the wells of a 24-well plate to give approximately 200 Mf in 2.0 ml, using a single well for each drug concentration. All procedures were carried out using aseptic techniques. The five novel compounds, plus GA and medium alone controls, were tested three times against Mf over the full range of concentrations.

B. malayi Hsp90 = B. malayi Hsp90 (Brugia malayi, UniProt A0A0H5S7Y7); assay: Competition FP assay (displacement of Cy3B-GA), B. malayi lysate; type: binding; settings: best fit (95% confidence intervals), read-out: B. malayi IC50
Method: (§1) The FP assay was set up essentially as described previously, [25]. […] The equilibrium binding of Cy3B-GA and recombinant human Hsp90α (Enzo Life Sciences, Farmingdale, NY USA) or parasite lysate was determined by creating a two-fold dilution series of protein/extract for an eleven-point curve with the first column containing no protein. […] All FP values are expressed in millipolarization (mP) units with the mP value of free Cy3B-GA probe set to 50. Equilibrium binding constants were determined by nonlinear regression using a one-site binding model (GraphPad Prism software).
(§2) The relative binding affinities of inhibitors to human or parasite-derived Hsp90 was determined using competitive FP binding assays. […] For parasite-derived Hsp90, an amount of parasite lysate resulting in 50% of maximal Cy3B-GA binding was used. […] Stock solutions of each compound were prepared in DMSO at a concentration of 10 mM and 3-fold serial dilutions prepared in DMSO for eleven point curves. […] The final concentration of Cy3B-GA was 6 nM and the final DMSO concentration in all wells was 0.5%. Free Cy3B-GA (mP set to 50) and buffer only (background) wells were included as controls on each plate. Plates were incubated at 8°C with gentle shaking for 20 h.

B. pahangi Hsp90 = target: T1, B. pahangi Hsp90 (Brugia pahangi, UniProt O61998); assay: Competition FP assay (displacement of Cy3B-GA), B. pahangi lysate; type: binding; settings: FP assay; best fit (95% confidence intervals); read-out: B. pahangi IC50
T1 construct: Adult worms of B. pahangi were obtained from infected jirds; from tissue; host or cells: whole adult B. pahangi worms, ground and lysed in HFB buffer
Method: Adult worms of B. pahangi were obtained from infected jirds after 3–4 months, exactly as described previously and were frozen in liquid nitrogen, ground in a pestle and mortar to a fine powder and re-suspended in an appropriate volume of HFB assay buffer (20 mM HEPES, pH 7.3, 50 mM KCl, 5 mM MgCl2, 20 mM Na2MoO4, 1% NP40). Protein concentrations were estimated using the BioRad protein assay. At this point lysates were freeze-dried for shipping to the USA.
as §1, §2

Brugia Hsp90 = assay: Competition FP assay, Brugia Hsp90 (species not separated); type: binding; settings: read-out: IC50 for binding to Brugia Hsp90
Method: as §1, §2

male worms (B. pahangi) = assay: Adult male worm exposure in vitro; type: cell-based, Brugia pahangi; settings: 100 nM, day 7 of exposure
Method: The remaining worms although alive, were extremely sluggish. […] Worms that were dying tended to burst and release their uterine contents and wells contained many embryonic stages in addition to Mf. […] By day 7 of exposure 100% of male worms exposed to 100 nM drug were dead.

[3] = single dose of 50 mg/Kg, intra-peritoneal route; cited from earlier work
adult female B. pahangi [4] = assay: Adult female worm assay in vitro (Mf output and adult viability), continuous exposure; type: cell-based, Brugia pahangi
Method: For adult worm assays, adult female B. pahangi, 3–4 months old, were incubated individually in 2.0 ml of WCM overnight in 24-well plates and pre-screened for Mf production. […] For the drug experiments, six female worms of B. pahangi for each concentration of drug were cultured individually in 24-well plates in 2.0 ml of WCM containing drug, or carrier alone (DMSO) at a concentration equal to that in the highest concentration of drug. In some experiments, GA was used as a positive control. Initially, all five compounds were tested over selected concentrations starting at 2 µM to 100 nM (see Results for details). For Hsp90 inhibitors, Mf output by individual female worms is a sensitive indicator of adult worm viability and, in most experiments, was assessed at 72 h. In addition, adult worms were examined microscopically on a daily basis for 7–10 days to determine whether lower concentrations of drugs had any effects over a longer period of incubation. Results are expressed as mean Mf output ± SD over a 72 h period. Statistical significance between groups was calculated using the Mann Whitney test with P values<0.05 being considered significant.

adult female B. pahangi [5] = assay: Short 24 h exposure of adult female worms, then medium alone; type: cell-based, Brugia pahangi; settings: for mean Mf production: 24 h in drug and 24 h in medium alone; for lowest concentration with significantly fewer Mf: 250, 25, 10 nM tested
[6] = recovery 9 days after last dose

Q: Which “Mean no Mf per mouse” value ([1]; first 12 ml of peritoneal washings) does the source give for `CCNC(=O)c1noc(-c2cc(C(C)C)c(O)cc2O)c1-c1ccc(CN2CCOCC2)cc1` [NVP-AUY922] here?
A: 4730±5101

Q: What about the “recovery of live worms” value ([1]; range over treated mice) of the same molecule?
A: 0–11%

Q: And the “Total number worms recovered” value ([1]; recovered/transplanted)?
A: 8/48 ^**

Q: And the “No. mice with live Mf” value [1, 6]?
A: 2/5

Q: What about the “No. mice with viable worms” value [1, 6] of the same molecule?
A: 2/5

Q: What about the “No. mice with worms” value [1, 6] of the same molecule?
A: 5/5

Q: What about the “No. viable worms recovered” value [1, 6] of the same molecule?
A: 2

Q: What about the “viable worms recovered (mean % ± SD)” value [1, 6] of the same molecule?
A: 4.4±6.0%

Q: And the “effect on L3” value (L3 stage of B. pahangi; 1 nM or below)?
A: no effect

Q: What about the L3 dead (L3 stage of B. pahangi; 5.0 nM, remainder moving very slowly) of the same molecule?
A: approximately 30%

Q: What about the L3 dead (L3 stage of B. pahangi; all concentrations down to and including 10 nM) of the same molecule?
A: 100%

Q: What about the “% death by day 7” value ([2]; 0.976 nM) of the same molecule?
A: 75%

Q: What about the “% death by day 7” value ([2]; 1.95 nM) of the same molecule?
A: 100%

Q: What about the IC50 (B. malayi Hsp90) of the same molecule?
A: 0.95 nM

Q: What about the IC50 (B. pahangi Hsp90) of the same molecule?
A: 0.64 nM

Q: What about the IC50 (Brugia Hsp90) of the same molecule?
A: ~1 nM

Q: What about the male worms dead (male worms (B. pahangi)) of the same molecule?
A: 100%

Q: And the “time of maximum plasma level post-dosing” value [3]?
A: 0.25 h

Q: And the “adult worm survival at lower concentrations” value (adult female B. pahangi [4]; 10 and 5.0 nM, motility affected)?
A: did not die

Q: What about the “lowest concentration with significant inhibitory effect on Mf output” value (adult female B. pahangi [4]; 72 h exposure, titrated 500 nM to 1.0 nM) of the same molecule?
A: 10 nM

Q: And the adult worms killed (adult female B. pahangi [4]; 6 days exposure, 25 nM)?
A: 50%

Q: And the adult worms dead (adult female B. pahangi [4]; 6 days exposure, 25 nM, typical experiment)?
A: 3/6

Q: What about the adult worms dead (adult female B. pahangi [4]; 6 days exposure, 50 nM, typical experiment) of the same molecule?
A: 4/6

Q: What about the adult worms dead (adult female B. pahangi [4]; 6 days exposure, 100 nM and above) of the same molecule?
A: all adult worms were dead

Q: And the “lowest concentration with significant decrease in Mf output” value (adult female B. pahangi [4]; 6 days exposure, not significant at 1.0 nM)?
A: 5.0 nM and 5 nM

Q: What about the “concentration with significant effect on Mf output” value (adult female B. pahangi [4]; initial screen 2.0 µM to 100 nM, adult female worms) of the same molecule?
A: ≤ 100 nM

Q: What about the “mean Mf production” value (adult female B. pahangi [5]; 10 nM, not significant vs DMSO) of the same molecule?
A: 910±674 Mf

Q: And the “mean Mf production” value (adult female B. pahangi [5]; 25 nM)?
A: 100±60 Mf

Q: And the “mean Mf production” value (adult female B. pahangi [5]; 250 nM)?
A: 11±23 Mf

Q: And the “condition of adult worms” value (adult female B. pahangi [5]; 24 h exposure to 10 nM, day 9, vs DMSO controls)?
A: no obvious difference

Q: And the “condition of adult worms” value (adult female B. pahangi [5]; 24 h exposure to 25 nM, day 9)?
A: noticeably more sluggish than control worms

Q: And the “condition of adult worms” value (adult female B. pahangi [5]; 24 h exposure to 250 nM, 9 days in medium alone)?
A: barely moving, but they were still alive

Q: And the “lowest concentration with significantly fewer Mf” value (adult female B. pahangi [5]; 24 h in drug and 48 h in medium alone)?
A: 10 nM

Q: What about the “lowest concentration with significantly fewer Mf” value (adult female B. pahangi [5]; after 24 h in drug) of the same molecule?
A: 25 nM
